Like-named read-outs stand apart in the source and are kept apart here.
Experiments:
Format in all cases: cell-based
[1] = biological target: T1, protein kinases (human kinome) (Homo sapiens, UniProt O14976)
T1 sequence (O14976 1-1311): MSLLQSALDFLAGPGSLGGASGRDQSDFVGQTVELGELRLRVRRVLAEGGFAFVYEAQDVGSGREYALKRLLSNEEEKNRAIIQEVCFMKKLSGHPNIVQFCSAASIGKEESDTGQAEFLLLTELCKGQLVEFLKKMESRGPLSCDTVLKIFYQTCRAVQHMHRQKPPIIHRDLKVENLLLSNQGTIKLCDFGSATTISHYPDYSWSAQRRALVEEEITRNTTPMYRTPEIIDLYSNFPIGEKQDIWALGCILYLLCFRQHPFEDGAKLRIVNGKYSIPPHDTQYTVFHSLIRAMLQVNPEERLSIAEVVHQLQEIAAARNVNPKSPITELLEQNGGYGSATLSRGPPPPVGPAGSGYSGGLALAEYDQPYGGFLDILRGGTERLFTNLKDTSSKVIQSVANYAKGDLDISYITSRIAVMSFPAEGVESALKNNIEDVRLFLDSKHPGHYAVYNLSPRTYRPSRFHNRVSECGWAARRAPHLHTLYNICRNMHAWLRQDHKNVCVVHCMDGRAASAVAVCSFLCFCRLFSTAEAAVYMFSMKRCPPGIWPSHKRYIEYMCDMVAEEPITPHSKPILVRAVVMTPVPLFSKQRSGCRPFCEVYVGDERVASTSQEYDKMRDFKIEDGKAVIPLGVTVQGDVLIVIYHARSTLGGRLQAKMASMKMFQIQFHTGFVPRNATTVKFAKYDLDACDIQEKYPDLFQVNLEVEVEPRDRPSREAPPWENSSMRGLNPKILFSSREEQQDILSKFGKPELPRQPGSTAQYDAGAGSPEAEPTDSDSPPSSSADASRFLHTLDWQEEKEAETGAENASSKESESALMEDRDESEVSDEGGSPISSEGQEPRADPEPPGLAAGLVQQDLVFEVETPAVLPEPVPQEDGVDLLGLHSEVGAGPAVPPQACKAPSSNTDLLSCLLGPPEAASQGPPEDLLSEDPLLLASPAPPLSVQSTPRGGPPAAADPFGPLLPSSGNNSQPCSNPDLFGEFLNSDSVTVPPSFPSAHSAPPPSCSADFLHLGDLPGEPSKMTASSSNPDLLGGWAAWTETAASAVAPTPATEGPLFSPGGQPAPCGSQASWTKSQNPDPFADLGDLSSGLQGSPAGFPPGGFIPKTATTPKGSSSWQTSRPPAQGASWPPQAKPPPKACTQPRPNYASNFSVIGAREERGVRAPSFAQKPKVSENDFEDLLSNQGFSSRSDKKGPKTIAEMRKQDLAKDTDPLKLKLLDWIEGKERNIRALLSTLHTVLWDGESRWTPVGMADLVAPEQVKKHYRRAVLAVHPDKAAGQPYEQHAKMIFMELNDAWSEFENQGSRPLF

[2] = biological target: protein kinases (human kinome) (Homo sapiens, UniProt P51451); settings: for logFC BLK: BLK (P51451), direction down; for logFC of BLK: BLK P51451; for logFC of BLK (P51451): down
protein kinases (human kinome) (Homo sapiens, UniProt P51451), sequence (P51451 whole entry): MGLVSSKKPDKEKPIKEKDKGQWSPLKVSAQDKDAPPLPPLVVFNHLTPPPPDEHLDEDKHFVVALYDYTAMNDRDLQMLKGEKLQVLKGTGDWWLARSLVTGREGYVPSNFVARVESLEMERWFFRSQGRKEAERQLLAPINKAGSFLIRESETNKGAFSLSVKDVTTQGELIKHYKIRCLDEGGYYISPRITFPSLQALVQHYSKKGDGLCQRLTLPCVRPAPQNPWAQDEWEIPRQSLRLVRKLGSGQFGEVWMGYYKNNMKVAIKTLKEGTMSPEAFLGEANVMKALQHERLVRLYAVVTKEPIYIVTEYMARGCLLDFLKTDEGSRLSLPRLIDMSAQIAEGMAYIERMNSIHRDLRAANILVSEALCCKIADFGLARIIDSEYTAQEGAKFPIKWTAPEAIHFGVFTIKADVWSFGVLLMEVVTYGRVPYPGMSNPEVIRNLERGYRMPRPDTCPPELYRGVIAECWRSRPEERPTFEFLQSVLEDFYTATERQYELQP

[3] = biological target: protein kinases (human kinome) (Homo sapiens, UniProt P11802)
protein kinases (human kinome) (Homo sapiens, UniProt P11802), sequence (P11802 whole entry): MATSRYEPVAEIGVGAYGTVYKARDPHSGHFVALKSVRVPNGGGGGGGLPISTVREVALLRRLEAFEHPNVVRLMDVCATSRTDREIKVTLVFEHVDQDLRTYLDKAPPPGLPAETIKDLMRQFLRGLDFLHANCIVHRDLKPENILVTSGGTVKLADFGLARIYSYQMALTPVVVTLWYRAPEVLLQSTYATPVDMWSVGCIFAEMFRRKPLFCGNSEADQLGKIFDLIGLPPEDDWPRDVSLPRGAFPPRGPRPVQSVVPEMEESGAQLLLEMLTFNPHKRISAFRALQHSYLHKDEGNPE

[4] = biological target: protein kinases (human kinome) (Homo sapiens, UniProt P53671); settings: for logFC LIMK2: LIMK2 (P53671), down; for logFC of LIMK2: LIMK2 P53671
protein kinases (human kinome) (Homo sapiens, UniProt P53671), sequence (P53671 whole entry): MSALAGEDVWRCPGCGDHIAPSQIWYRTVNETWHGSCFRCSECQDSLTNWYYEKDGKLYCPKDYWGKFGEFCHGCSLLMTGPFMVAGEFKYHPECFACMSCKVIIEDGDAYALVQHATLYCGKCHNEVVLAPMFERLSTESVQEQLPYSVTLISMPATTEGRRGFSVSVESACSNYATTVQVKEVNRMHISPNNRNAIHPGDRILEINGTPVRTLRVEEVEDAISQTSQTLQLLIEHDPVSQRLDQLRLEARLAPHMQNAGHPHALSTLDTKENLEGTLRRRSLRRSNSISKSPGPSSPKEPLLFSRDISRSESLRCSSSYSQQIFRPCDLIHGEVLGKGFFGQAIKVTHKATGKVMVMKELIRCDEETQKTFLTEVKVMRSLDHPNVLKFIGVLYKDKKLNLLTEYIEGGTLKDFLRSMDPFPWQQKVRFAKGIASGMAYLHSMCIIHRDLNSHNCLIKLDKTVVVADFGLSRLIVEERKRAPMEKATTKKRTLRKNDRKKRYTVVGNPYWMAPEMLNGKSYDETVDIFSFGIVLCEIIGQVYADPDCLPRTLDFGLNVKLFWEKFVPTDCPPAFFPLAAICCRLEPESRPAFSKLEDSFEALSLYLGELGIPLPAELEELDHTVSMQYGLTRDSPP

[5] = GAK (O14976), direction down, experiment wp045

SMILES: Cc1ccc(NC(=O)c2cccc(C(F)(F)F)c2)cc1N1Cc2cnc(Nc3ccc(N4CCN(Cc5cn(CCCCCOc6cccc7c6C(=O)N(C6CCC(=O)NC6=O)C7=O)nn5)CC4)nc3)nc2N(C)C1=O (stereo not drawn) [DB0646, N-(3-(7-((6-(4-((1-(5-((2-(2,6-Dioxopiperidin-3-yl)-1,3-dioxoisoindolin-4-yl)oxy)pentyl)-1H-1,2,3-triazol-4-yl)methyl)piperazin-1-v)pyridin-3-yl)amino)-1-methyl-2-oxo-1,4-dihydropyrimido[4,5-d]pyrimidin-3(2H)-yl)-4-methylphenyl)-3-(trifluoromethyl)benzamide]
- logFC of GAK (O14976) ([1]; Experiment wp045, down): −0.6424
- logFC of GAK (O14976) ([1]; Experiment wp103, down): −0.4684
- logFC of GAK (O14976) ([1]; Experiment wp105, down): −0.3367
- logFC of GAK (O14976) ([1]; Experiment wp107, down): −0.5564
- logFC of GAK (O14976) ([1]; Experiment wp114, down): −0.3391
- logFC of GAK (O14976) ([1]; Experiment wp117, down): −0.5868
- logFC of GAK (O14976) ([1]; Experiment wp152, down): −0.5117
- logFC of GAK (O14976) ([1]; Experiment wp160, 4 hr, down): −0.4714
- logFC GAK [1, 5]: −0.6424
- logFC GAK ([1]; GAK (O14976), direction down, experiment wp103): −0.4684
- logFC GAK ([1]; GAK (O14976), direction down, experiment wp105): −0.3367
- logFC GAK ([1]; GAK (O14976), direction down, experiment wp107): −0.5564
- logFC GAK ([1]; GAK (O14976), direction down, experiment wp114): −0.3391
- logFC GAK ([1]; GAK (O14976), direction down, experiment wp117): −0.5868
- logFC GAK ([1]; GAK (O14976), direction down, experiment wp152): −0.5117
- logFC GAK ([1]; GAK (O14976), direction down, experiment wp160, 4 hr): −0.4714
- logFC GAK ([1]; GAK (O14976), direction down, experiment wp160, 8 hr): −0.8149
- logFC GAK ([1]; GAK (O14976), experiment wp160, 8 hr, degrader vs DMSO, down): −0.8149
- logFC GAK ([1]; GAK (O14976), experiment wp172, down): −0.345
- logFC GAK ([1]; GAK, accession O14976, experiment wp172, direction of change down): −0.345
- logFC BLK ([2]; experiment wp103): −1.19
- logFC BLK ([2]; experiment wp107): −1.259
- logFC BLK ([2]; experiment wp117): −1.275
- logFC BLK ([2]; experiment wp152): −1.511
- logFC BLK ([2]; experiment wp160, 2 hr): −0.5315
- logFC BLK ([2]; experiment wp160, 4 hr): −1.092
- logFC BLK ([2]; experiment wp160, 8 hr): −1.434
- logFC of BLK ([2]; experiment wp045): −1.314
- logFC of BLK (P51451) ([2]; Experiment wp045): −1.314
- logFC of BLK (P51451) ([2]; Experiment wp103): −1.19
- logFC of BLK (P51451) ([2]; Experiment wp107): −1.259
- logFC of BLK (P51451) ([2]; Experiment wp117): −1.275
- logFC of BLK (P51451) ([2]; Experiment wp152): −1.511
- logFC of BLK (P51451) ([2]; Experiment wp160, 2 hr): −0.5315
- logFC of BLK (P51451) ([2]; Experiment wp160, 4 hr): −1.092
- logFC of BLK (P51451) ([2]; Experiment wp160, 8 hr): −1.434
- logFC CDK4 (P11802) ([3]; experiment wp045): −0.9012
- logFC CDK4 (P11802) ([3]; experiment wp103): −0.5015
- logFC CDK4 (P11802) ([3]; experiment wp107): −0.5565
- logFC CDK4 (P11802) ([3]; experiment wp117): −0.6673
- logFC CDK4 (P11802) ([3]; experiment wp152): −0.736
- logFC CDK4 (P11802) ([3]; experiment wp160, 4 hr): −0.7263
- logFC CDK4 (P11802) ([3]; experiment wp160, 8 hr): −1.114
- logFC LIMK2 ([4]; experiment wp045): −1.648
- logFC LIMK2 ([4]; experiment wp103): −1.569
- logFC LIMK2 ([4]; experiment wp107): −1.738
- logFC LIMK2 ([4]; experiment wp117): −1.565
- logFC LIMK2 ([4]; experiment wp152): −1.565
- logFC LIMK2 ([4]; experiment wp172): −1.095
- logFC of LIMK2 ([4]; experiment wp045): −1.648
- logFC of LIMK2 ([4]; experiment wp103): −1.569
- logFC of LIMK2 ([4]; experiment wp107): −1.738
- logFC of LIMK2 ([4]; experiment wp117): −1.565
- logFC of LIMK2 ([4]; experiment wp152): −1.565
- logFC of LIMK2 ([4]; experiment wp172): −1.095

SMILES: Cc1ccc(NC(=O)c2cccc(C(F)(F)F)c2)cc1N1Cc2cnc(Nc3ccc(N4CCN(CCCCCCOc5cccc6c5C(=O)N(C5CCC(=O)NC5=O)C6=O)CC4)nc3)nc2N(C)C1=O (stereo not drawn) [DB0663]
- logFC of GAK (O14976) ([1]; Experiment wp045, down): −0.691
- logFC GAK [1, 5]: −0.691
- logFC of BLK ([2]; experiment wp045): −1.058
- logFC of BLK (P51451) ([2]; Experiment wp045): −1.058
- logFC CDK4 (P11802) ([3]; experiment wp045): −0.6823
- logFC LIMK2 ([4]; experiment wp045): −1.367
- logFC of LIMK2 ([4]; experiment wp045): −1.367

SMILES: CC(C)S(=O)(=O)c1ccccc1Nc1nc(Nc2ccc(N3CCN(CCOCCNC(=O)CNc4ccc5c(c4)C(=O)N(C4CCC(=O)NC4=O)C5=O)CC3)cc2)ncc1Cl (stereo not drawn) [SK.3.93]
- logFC of GAK (O14976) ([1]; Experiment wp016, down): −0.4334
- logFC GAK ([1]; GAK (O14976), direction down, experiment wp016): −0.4334
- logFC of BLK ([2]; experiment wp016): −1.502
- logFC of BLK (P51451) ([2]; Experiment wp016): −1.502
- logFC CDK4 (P11802) ([3]; experiment wp016): −1.305
- logFC LIMK2 ([4]; experiment wp016): −1.01
- logFC of LIMK2 ([4]; experiment wp016): −1.01

Source: patent US20240269139A1, “COMPOUNDS FOR TARGETED PROTEIN DEGRADATION OF KINASES” (DANA-FARBER CANCER INSTITUTE, INC., priority 2020, published 2024)
